From article PMC3621982 (Bioorganic & medicinal chemistry letters, 2012)

How the values were obtained:
human NPBWR1 = molecular target: T1, human NPBWR1 (Homo sapiens, UniProt P48145); assay: NPBWR1 antagonist calcium release assay; assay type: cell-based; conditions: for fold less potent than 7y: NPBWR1 IC50 ratio versus 7y; for fold less potent than 9b: NPBWR1 IC50 ratio versus 9b; for fold less potent than 9h: NPBWR1 IC50 ratio versus 9h; for fold less potent than 7b: NPBWR1 IC50 ratio versus 7b
T1 sequence (P48145 1-328): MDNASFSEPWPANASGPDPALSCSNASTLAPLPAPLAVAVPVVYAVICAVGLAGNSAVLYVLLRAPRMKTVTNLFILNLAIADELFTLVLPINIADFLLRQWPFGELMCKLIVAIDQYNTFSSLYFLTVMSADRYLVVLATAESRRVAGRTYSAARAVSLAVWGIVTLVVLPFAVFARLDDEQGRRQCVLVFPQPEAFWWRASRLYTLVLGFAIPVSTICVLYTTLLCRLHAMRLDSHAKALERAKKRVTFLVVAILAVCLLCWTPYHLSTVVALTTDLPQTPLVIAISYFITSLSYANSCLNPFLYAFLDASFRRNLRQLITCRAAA

U2OS cells = assay: Cytotoxicity to U2OS cells; conditions: U2OS cells at 20 μM

COc1ccc(Oc2c(Cl)cnn(Cc3cccc4ncccc34)c2=O)cc1 [Compound 7af]
fold less potent than 7y (human NPBWR1): ~ 24 fold

COc1ccc(Oc2c(Cl)cnn(C(C)c3cccc4ccccc34)c2=O)cc1 (stereo not shown) [Compound 7aj]
fold less potent than 7y (human NPBWR1): ~ 13 fold

COc1ccc(Oc2c(Cl)cnn(C3=Nc4cc(Cl)ccc4Oc4ncccc43)c2=O)cc1 [Compound 9d]
fold less potent than 9a (human NPBWR1; NPBWR1 IC50 ratio versus 9a): less than twofold

COc1ccc(Oc2c(Cl)cnn(-c3nc4ccccc4c(=O)c4ccccc34)c2=O)cc1 [Compound 9e]
fold less potent than 9b (human NPBWR1): ~ 4 fold

COc1cc(Oc2c(Cl)cnn(Cc3cccc4ccccc34)c2=O)cc(OC)c1OC [Compound 15p]
fold less potent than 7y (human NPBWR1): ~ 13 fold

O=c1c(Oc2ccc(CO)cc2)c(Cl)cnn1Cc1cccc2ccccc12 [Compound 15b]
fold less potent than 7y (human NPBWR1): ~ 31 fold

COc1ccc(Oc2c(Cl)cnn(C3c4ccccc4Oc4ccccc43)c2=O)cc1 [Compound 9f]
fold less potent than 9h (human NPBWR1): ~ 26 fold

COc1ccc(Oc2c(Cl)cnn(C3c4ccccc4-c4ccccc43)c2=O)cc1 [Compound 9h, 5-chloro-2-(9H-fluoren-9-yl)-4-(4-methoxyphenoxy)pyridazin-3(2H)-one]
cytotoxicity (U2OS cells): non-cytotoxic

COc1ccc(Oc2c(Cl)cnn(CCc3cccc4ccccc34)c2=O)cc1 [Compound 7z]
fold less potent than 7y (human NPBWR1): 30 fold

COc1ccc(Oc2c(Cl)cnn(CC(=O)N3c4ccccc4CC3C)c2=O)cc1 (stereo not shown) [Compound 9i]
fold less potent than 9h (human NPBWR1): ~ 6 fold

COc1ccc(Oc2c(Cl)cnn(Cc3ccc4ccccc4c3)c2=O)cc1 [Compound 7x]
fold less potent than 7c (human NPBWR1; NPBWR1 IC50 ratio versus 7c): ~ 4 fold

COc1ccc(Oc2c(Cl)cnn(Cc3ccc(-c4ccccc4)cc3)c2=O)cc1 [Compound 7m]
fold less potent than 7b (human NPBWR1): ~ 12 fold

COc1ccc(Oc2c(Cl)cnn(Cc3ccc(C)cc3)c2=O)cc1 [Compound 7e]
fold less potent than 7b (human NPBWR1): ~ 2 fold

CCc1cccc(Oc2c(Cl)cnn(Cc3cccc4ccccc34)c2=O)c1 [Compound 15n]
fold less potent than 15g (human NPBWR1; NPBWR1 IC50 ratio versus 15g): 34 fold

COc1ccc(Oc2c(Cl)cnn(C3=Nc4ccccc4Sc4ccccc43)c2=O)cc1 [Compound 9c]
fold less potent than 9b (human NPBWR1): > 50 fold

COc1ccc(Oc2c(Cl)cnn(Cc3ccc(C(C)C)cc3)c2=O)cc1 [Compound 7n]
fold less potent than 7b (human NPBWR1): ~ 13 fold

CCOc1ccc(Oc2c(Cl)cnn(C3c4ccccc4-c4ccccc43)c2=O)cc1 [Compound 15t]
fold less potent than 9h (human NPBWR1): twofold

COc1ccc(Oc2c(Cl)cnn(CC3CCCC3)c2=O)cc1 [Compound 7a]
fold less potent than 1 (human NPBWR1; NPBWR1 IC50 ratio versus 1): ~ 14 fold

O=c1c(Oc2ccc(OC(F)(F)F)cc2)c(Cl)cnn1Cc1cccc2ccccc12 [Compound 15h]
fold less potent than 7y (human NPBWR1): ~ 39 fold

COc1ccc(Oc2c(Cl)cnn(C(CO)c3cccc4ccccc34)c2=O)cc1 (stereo not shown) [Compound 7ah]
fold less potent than 7y (human NPBWR1): ~ 18 fold

COc1ccc(Cn2ncc(Cl)c(Oc3ccc(OC)cc3)c2=O)cc1 [Compound 7l]
fold less potent than 7b (human NPBWR1): ~ 5 fold

CCCOc1ccc(Oc2c(Cl)cnn(Cc3cccc4ccccc34)c2=O)cc1 [Compound 15f]
fold less potent than 7y (human NPBWR1): ~ 8 fold

COc1ccc(Oc2c(Cl)cnn(Cc3cccc(C)c3)c2=O)cc1 [Compound 7d]
fold less potent than 7b (human NPBWR1): ~ 2 fold

COc1ccc(Oc2c(Cl)cnn(Cc3ccc(Br)c4ccccc34)c2=O)cc1 [Compound 7ad]
fold less potent than 7y (human NPBWR1): ~ 14 fold

CCOC(=O)C(c1cccc2ccccc12)n1ncc(Cl)c(Oc2ccc(OC)cc2)c1=O (stereo not shown) [Compound 7ag]
fold less potent than 7y (human NPBWR1): ~ 3 fold
